Read-outs that look alike come from different tables or passages of the source.
Tested on: amphetamine-induced symptoms
Assay: antagonism of amphetamine-induced symptoms in rats (block of d-amphetamine cage movement, rating scale)
Assay type: in vivo
Settings: Rattus norvegicus, ip, i.p. test compound, rated one hour after amphetamine
Description: The tranquilizing agents of the present invention are characterized by relief of such schizophrenic manifestations in humans as hallucinations, hostility, suspiciousness, emotional and social withdrawal, anxiety, agitation and tension. Standard procedures of detecting and comparing tranquilizing activity of compounds in this series and for which there is an excellent correlation with human efficacy is the antagonism of amphetamine-induced symptoms in rats test as taught by A. Weissman, et al., J. Pharmacol. Exp. Ther., 151, 339 (1966) and by Quinton, et al., Nature, 200, 178 (1963).
The effects of the compounds of the present invention on prominent amphetamine-induced symptoms were studied in rats by a rating scale modeled after the one reported by Quinton and Halliwell, and Weissman. Groups of five rats were placed in a covered plastic cage measuring approximately 26 cm. × 42 cm. × 16 cm. After a brief period of acclimation in the cage, the rats in each group were treated intraperitoneally (i.p.) with the test compound. […] On the basis of dose-response data after amphetamine it was possible to determine the effective dose of the compound necessary to antagonize or block the characteristic amphetamine behavior of cage movement for fifty percent of the rats tested (ED50). The time of rating chosen coincides with the peak action of amphetamine which is 60-80 min. after treatment with this agent.
Employing the above-described procedure, the following compounds were tested for their ability to block the behavior effects of amphetamine, the results being reported as the ED50 in mg./kg. at the indicated times: ##SPC25##

[1] = d-amphetamine sulfate 5 mg./kg. i.p. 1 hr. later, read-out: ED50 (dose antagonizing/blocking characteristic amphetamine cage movement in fifty percent of rats), 1 hr.
[2] = d-amphetamine sulfate 5 mg./kg. i.p. 5 hrs. later, read-out: ED50 (dose antagonizing/blocking characteristic amphetamine cage movement in fifty percent of rats), 5 hrs.

SMILES	ED50 [1]	ED50 [2]
Cl.OC(CCCN1Cc2c(n(-c3ccc(F)cc3)c3ccc(F)cc23)C1)c1ccc(F)cc1 (centres unmarked) [F F p-FC6 H4 CH(CH2)3 --, 7-Fluoro-4-(p-fluorophenyl)-2-[4-(p-fluorophenyl)-4-hydroxybutyl]-1,2,3,4-tetrahydropyrrolo[3,4-b]indole hydrochloride]	1 to 3.2 mg/kg	1 to 3.2 mg/kg
CN1Cc2c(n(-c3ccc(F)cc3)c3ccc(F)cc23)C1 [F F CH3, 7-Fluoro-4-(p-fluorophenyl)-2-methyl-1,2,3,4-tetrahydropyrrolo[3,4-b]indole]	3.2 to 5.6 mg/kg	> 10 mg/kg
CN(C)CCCN1c2ccccc2Sc2ccc(Cl)cc21 [chlorpromazine, reference compound]	> 10 mg/kg	

Source: US3968231A, “4-Aryl-1,2,3,4-tetrahydropyrrolo(3,4-b)indoles for treating schizophrenic manifestations” (Bayer Aktiengesellschaft, priority 1975, dated 1976)
